Measured values from patent US20100298141A1, “SUBSTITUTED PYRIDINE N-OXIDE HERBICIDES” (E. I. DU PONT DE NEMOURS AND COMPANY, priority 2007, published 2010).

Tests used:
lambsquarters = assay: Test G preemergence test; type: in vivo, Chenopodium album; settings: scale 0 to 100
millet foxtail = assay: Test G preemergence test; type: in vivo, Setaria italica; settings: scale 0 to 100
windgrass = assay: Test D preemergence test; type: in vivo, Apera spica-venti; settings: scale 0 to 100
Outline: (§1)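 Seeds were sown and sprayed preemergence with test chemicals formulated in a non-phytotoxic solvent mixture containing a surfactant. A dash marks no test result.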

littleseed canarygrass = assay: Test D preemergence test; type: in vivo, Phalaris minor; settings: scale 0 to 100
Outline: as §1

yellow foxtail = assay: Test G preemergence test; type: in vivo, Pennisetum glaucum; settings: scale 0 to 100
cotton = assay: Test G preemergence test; type: in vivo, Gossypium hirsutum; settings: scale 0 to 100
rice = assay: Test B flooded paddy test; type: in vivo, Oryza sativa; settings: Flood, 250 g ai/ha, 13 to 15 days; scale 0 to 100, 0 no effect, 100 complete control
Source text: (§2) At time of treatment, test pots were flooded to 3 cm above the soil surface, treated by application of test compounds directly to the paddy water, and then maintained at that water depth for the duration of the test. Treated plants and controls were maintained in a greenhouse for 13 to 15 days, after which time all species were compared to controls and visually evaluated. […] A dash (-) response means no test result.

soybean = assay: Test G preemergence test; type: in vivo, Glycine max; settings: scale 0 to 100
duck salad = assay: Test B flooded paddy test; type: in vivo, Heteranthera limosa; settings: Flood, 250 g ai/ha, 13 to 15 days; scale 0 to 100, 0 no effect, 100 complete control
Source text: as §2

blackgrass = assay: Test D preemergence test; type: in vivo, Alopecurus myosuroides; settings: scale 0 to 100
Outline: as §1

annual bluegrass = assay: Test D preemergence test; type: in vivo, Poa annua; settings: scale 0 to 100
Outline: as §1

Italian ryegrass = assay: Test D preemergence test; type: in vivo, Lolium multiflorum; settings: scale 0 to 100
Outline: as §1

fall panicum = assay: Test G preemergence test; type: in vivo, Panicum dichotomiflorum; settings: scale 0 to 100
giant foxtail = assay: Test G preemergence test; type: in vivo, Setaria faberii; settings: scale 0 to 100
broadleaf signalgrass = assay: Test G preemergence test; type: in vivo, Brachiaria platyphylla; settings: scale 0 to 100
woolly cupgrass = assay: Test G preemergence test; type: in vivo, Eriochloa villosa; settings: scale 0 to 100
goosegrass = assay: Test G preemergence test; type: in vivo, Eleusine indica; settings: scale 0 to 100
field sandbur = assay: Test G preemergence test; type: in vivo, Cenchrus incertus; settings: scale 0 to 100
corn = assay: Test G preemergence test; type: in vivo, Zea mays; settings: scale 0 to 100
field violet = assay: Test D preemergence test; type: in vivo, Viola arvensis; settings: scale 0 to 100
Outline: as §1

umbrella sedge = assay: Test B flooded paddy test; type: in vivo, Cyperus difformis; settings: Flood, 250 g ai/ha, 13 to 15 days; scale 0 to 100, 0 no effect, 100 complete control
Source text: as §2

sorghum = assay: Test G preemergence test; type: in vivo, Sorghum vulgare; settings: scale 0 to 100
spring wheat = assay: Test D preemergence test; type: in vivo, Triticum aestivum; settings: scale 0 to 100
Outline: as §1

tall waterhemp = assay: Test G preemergence test; type: in vivo, Amaranthus tuberculatos; settings: scale 0 to 100
eastern black nightshade = assay: Test G preemergence test; type: in vivo, Solanum ptycanthum; settings: scale 0 to 100

Cn1nc(C(F)(F)F)c(CS(=O)(=O)c2cccc[n+]2[O-])c1OC(F)F [Compound 4]
Plant response rating, Lambsquarters (lambsquarters; 31 g ai/ha): 0 | Plant response rating, Lambsquarters (lambsquarters; 62 g ai/ha): 10 | Plant response rating, Lambsquarters (lambsquarters; 125 g ai/ha): 10 | Plant response rating, Lambsquarters (lambsquarters; 250 g ai/ha): 10 | Plant response rating, Foxtail, Millet (millet foxtail; 31 g ai/ha): 30 | Plant response rating, Foxtail, Millet (millet foxtail; 62 g ai/ha): 40 | Plant response rating, Foxtail, Millet (millet foxtail; 125 g ai/ha): 70 | Plant response rating, Foxtail, Millet (millet foxtail; 250 g ai/ha): 100 | Plant response rating, Windgrass (windgrass; 31 g ai/ha): 90 | Plant response rating, Windgrass (windgrass; 62 g ai/ha): 100 | Plant response rating, Windgrass (windgrass; 125 g ai/ha): 100 | Plant response rating, Windgrass (windgrass; 250 g ai/ha): 100 | Plant response rating, Canarygrass (littleseed canarygrass; 31 g ai/ha): 30 | Plant response rating, Canarygrass (littleseed canarygrass; 62 g ai/ha): 100 | Plant response rating, Canarygrass (littleseed canarygrass; 125 g ai/ha): 100 | Plant response rating, Canarygrass (littleseed canarygrass; 250 g ai/ha): 100 | Plant response rating, Foxtail, Yellow (yellow foxtail; 31 g ai/ha): 100 | Plant response rating, Foxtail, Yellow (yellow foxtail; 62 g ai/ha): 100 | Plant response rating, Foxtail, Yellow (yellow foxtail; 125 g ai/ha): 100 | Plant response rating, Foxtail, Yellow (yellow foxtail; 250 g ai/ha): 100 | Plant response rating, Cotton (cotton; 31 g ai/ha): 5 | Plant response rating, Cotton (cotton; 62 g ai/ha): 25 | Plant response rating, Cotton (cotton; 125 g ai/ha): 0 | Plant response rating, Cotton (cotton; 250 g ai/ha): 10 | Plant response rating, Rice, Transplanted (rice): 90 | Plant response rating, Soybean (soybean; 31 g ai/ha): 0 | Plant response rating, Soybean (soybean; 62 g ai/ha): 10 | Plant response rating, Soybean (soybean; 125 g ai/ha): 15 | Plant response rating, Soybean (soybean; 250 g ai/ha): 15 | Plant response rating, Ducksalad (duck salad): 90 | Plant response rating, Blackgrass (blackgrass; 31 g ai/ha): 0 | Plant response rating, Blackgrass (blackgrass; 62 g ai/ha): 30 | Plant response rating, Blackgrass (blackgrass; 125 g ai/ha): 50 | Plant response rating, Blackgrass (blackgrass; 250 g ai/ha): 100 | Plant response rating, Bluegrass (annual bluegrass; 31 g ai/ha): 50 | Plant response rating, Bluegrass (annual bluegrass; 62 g ai/ha): 50 | Plant response rating, Bluegrass (annual bluegrass; 125 g ai/ha): 80 | Plant response rating, Bluegrass (annual bluegrass; 250 g ai/ha): 100 | Plant response rating, Ryegrass, Italian (Italian ryegrass; 31 g ai/ha): 20 | Plant response rating, Ryegrass, Italian (Italian ryegrass; 62 g ai/ha): 20 | Plant response rating, Ryegrass, Italian (Italian ryegrass; 125 g ai/ha): 20 | Plant response rating, Ryegrass, Italian (Italian ryegrass; 250 g ai/ha): 50 | Plant response rating, Fall Panicum (fall panicum; 31 g ai/ha): 20 | Plant response rating, Fall Panicum (fall panicum; 62 g ai/ha): 20 | Plant response rating, Fall Panicum (fall panicum; 125 g ai/ha): 60 | Plant response rating, Fall Panicum (fall panicum; 250 g ai/ha): 100 | Plant response rating, Foxtail, Giant (giant foxtail; 31 g ai/ha): 40 | Plant response rating, Foxtail, Giant (giant foxtail; 62 g ai/ha): 50 | Plant response rating, Foxtail, Giant (giant foxtail; 125 g ai/ha): 90 | Plant response rating, Foxtail, Giant (giant foxtail; 250 g ai/ha): 100 | Plant response rating, Signalgrass (broadleaf signalgrass; 31 g ai/ha): 0 | Plant response rating, Signalgrass (broadleaf signalgrass; 62 g ai/ha): 20 | Plant response rating, Signalgrass (broadleaf signalgrass; 125 g ai/ha): 80 | Plant response rating, Signalgrass (broadleaf signalgrass; 250 g ai/ha): 90 | Plant response rating, Cupgrass, Woolly (woolly cupgrass; 31 g ai/ha): 0 | Plant response rating, Cupgrass, Woolly (woolly cupgrass; 62 g ai/ha): 75 | Plant response rating, Cupgrass, Woolly (woolly cupgrass; 125 g ai/ha): 75 | Plant response rating, Cupgrass, Woolly (woolly cupgrass; 250 g ai/ha): 100 | Plant response rating, Goosegrass (goosegrass; 31 g ai/ha): 80 | Plant response rating, Goosegrass (goosegrass; 62 g ai/ha): 95 | Plant response rating, Goosegrass (goosegrass; 125 g ai/ha): 100 | Plant response rating, Goosegrass (goosegrass; 250 g ai/ha): 100 | Plant response rating, Sandbur (field sandbur; 31 g ai/ha): 0 | Plant response rating, Sandbur (field sandbur; 62 g ai/ha): 30 | Plant response rating, Sandbur (field sandbur; 125 g ai/ha): 60 | Plant response rating, Sandbur (field sandbur; 250 g ai/ha): 100 | Plant response rating, Corn (corn; 31 g ai/ha): 0 | Plant response rating, Corn (corn; 62 g ai/ha): 0 | Plant response rating, Corn (corn; 125 g ai/ha): 5 | Plant response rating, Corn (corn; 250 g ai/ha): 0 | Plant response rating, Field Violet (field violet; 31 g ai/ha): 0 | Plant response rating, Field Violet (field violet; 62 g ai/ha): 0 | Plant response rating, Field Violet (field violet; 125 g ai/ha): 0 | Plant response rating, Field Violet (field violet; 250 g ai/ha): 10 | Plant response rating, Umbrella Sedge (umbrella sedge): 100 | Plant response rating, Sorghum (sorghum; 31 g ai/ha): 10 | Plant response rating, Sorghum (sorghum; 62 g ai/ha): 25 | Plant response rating, Sorghum (sorghum; 125 g ai/ha): 35 | Plant response rating, Sorghum (sorghum; 250 g ai/ha): 40 | Plant response rating, Wheat, Spring (spring wheat; 31 g ai/ha): 20 | Plant response rating, Wheat, Spring (spring wheat; 62 g ai/ha): 30 | Plant response rating, Wheat, Spring (spring wheat; 125 g ai/ha): 30 | Plant response rating, Wheat, Spring (spring wheat; 250 g ai/ha): 30 | Plant response rating, Waterhemp (tall waterhemp; 31 g ai/ha): 80 | Plant response rating, Waterhemp (tall waterhemp; 62 g ai/ha): 100 | Plant response rating, Waterhemp (tall waterhemp; 125 g ai/ha): 100 | Plant response rating, Waterhemp (tall waterhemp; 250 g ai/ha): 100 | Plant response rating, Nightshade (eastern black nightshade; 31 g ai/ha): 20 | Plant response rating, Nightshade (eastern black nightshade; 62 g ai/ha): 30 | Plant response rating, Nightshade (eastern black nightshade; 125 g ai/ha): 90 | Plant response rating, Nightshade (eastern black nightshade; 250 g ai/ha): 100
